Reference: the supplement of paper PMC10307832

Columns and labels:
Experiment in all cases: relative viability (nuclei count vs DMSO), 5 days (fraction); higher = more cells survive
NCI-H441 = test system: NCI-H441
How it was run: (§1)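 Relative viability is defined as nuclei in treated wells over nuclei in vehicle wells. Duplicate plates were run and medians reported. Lung cancer cell lines in 1536-well plates were dosed by pin tool one day after seeding, with one drug or with a fixed anchor-drug dose plus five library-drug doses (not always all listed) in √10 steps, and nuclei were counted after 5 days.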

NCI-H838 = test system: NCI-H838
How it was run: as §1

LCLC-103H = test system: LCLC-103H
How it was run: as §1

NCI-H2087 = test system: NCI-H2087
How it was run: as §1

NCI-H647 = test system: NCI-H647
How it was run: as §1

LOU-NH91 = test system: LOU-NH91
How it was run: as §1

NCI-H650 = test system: NCI-H650
How it was run: as §1

NCI-H2126 = test system: NCI-H2126
How it was run: as §1

NCI-H1395 = test system: NCI-H1395
How it was run: as §1

HARA = test system: HARA
How it was run: as §1

HCC-44 = test system: HCC-44
How it was run: as §1

201T = test system: 201T
How it was run: as §1

NCI-H23 = test system: NCI-H23
How it was run: as §1

EMC-BAC-2 = test system: EMC-BAC-2
How it was run: as §1

NCI-H1993 = test system: NCI-H1993
How it was run: as §1

NCI-H596 = test system: NCI-H596
How it was run: as §1

NCI-H3122 = test system: NCI-H3122
How it was run: as §1

NCI-H2347 = test system: NCI-H2347
How it was run: as §1

NCI-H2023 = test system: NCI-H2023
How it was run: as §1

NCI-H1666 = test system: NCI-H1666
How it was run: as §1

NCI-H2009 = test system: NCI-H2009
How it was run: as §1

BEN = test system: BEN
How it was run: as §1

NCI-H727 = test system: NCI-H727
How it was run: as §1

SMILES: C=C1C(=O)O[C@@H](CCCCCCCC)[C@@H]1C(=O)O [C-75] + CCNC(=O)c1noc(-c2cc(C(C)C)c(O)cc2O)c1-c1ccc(CN2CCOCC2)cc1 [Luminespib] (partner 0.01 µM)
- relative viability (NCI-H441; first compound 0.08 µM): 0.329
- relative viability (NCI-H441; first compound 0.253 µM): 0.453
- relative viability (NCI-H441; first compound 0.8 µM): 0.295
- relative viability (NCI-H441; first compound 2.53 µM): 0.518
- relative viability (NCI-H441; first compound 8 µM): 0.305
- relative viability (NCI-H838; first compound 0.08 µM): 0.325
- relative viability (NCI-H838; first compound 0.8 µM): 0.296
- relative viability (NCI-H838; first compound 2.53 µM): 0.286
- relative viability (NCI-H838; first compound 8 µM): 0.238
- relative viability (LCLC-103H; first compound 0.08 µM): 0.912
- relative viability (LCLC-103H; first compound 0.253 µM): 1.02
- relative viability (LCLC-103H; first compound 0.8 µM): 0.83
- relative viability (LCLC-103H; first compound 2.53 µM): 0.932
- relative viability (LCLC-103H; first compound 8 µM): 0.888
- relative viability (NCI-H2087; first compound 0.08 µM): 0.162
- relative viability (NCI-H2087; first compound 0.253 µM): 0.218
- relative viability (NCI-H2087; first compound 0.8 µM): 0.141
- relative viability (NCI-H2087; first compound 2.53 µM): 0.166
- relative viability (NCI-H2087; first compound 8 µM): 0.217
- relative viability (NCI-H647; first compound 0.08 µM): 0.114
- relative viability (NCI-H647; first compound 0.253 µM): 0.256
- relative viability (NCI-H647; first compound 0.8 µM): 0.183
- relative viability (NCI-H647; first compound 2.53 µM): 0.117
- relative viability (NCI-H647; first compound 8 µM): 0.13
- relative viability (LOU-NH91; first compound 0.08 µM): 0.307
- relative viability (LOU-NH91; first compound 0.253 µM): 0.346
- relative viability (LOU-NH91; first compound 0.8 µM): 0.344
- relative viability (LOU-NH91; first compound 2.53 µM): 0.29
- relative viability (LOU-NH91; first compound 8 µM): 0.32
- relative viability (NCI-H650; first compound 0.08 µM): 0.685
- relative viability (NCI-H650; first compound 0.253 µM): 0.737
- relative viability (NCI-H650; first compound 0.8 µM): 0.818
- relative viability (NCI-H650; first compound 2.53 µM): 0.684
- relative viability (NCI-H650; first compound 8 µM): 0.788
- relative viability (NCI-H2126; first compound 0.08 µM): 0.931
- relative viability (NCI-H2126; first compound 0.253 µM): 0.977
- relative viability (NCI-H2126; first compound 0.8 µM): 0.804
- relative viability (NCI-H2126; first compound 2.53 µM): 0.815
- relative viability (NCI-H2126; first compound 8 µM): 0.872
- relative viability (NCI-H1395; first compound 0.08 µM): 0.613
- relative viability (NCI-H1395; first compound 0.253 µM): 0.574
- relative viability (NCI-H1395; first compound 0.8 µM): 0.713
- relative viability (NCI-H1395; first compound 2.53 µM): 0.755
- relative viability (NCI-H1395; first compound 8 µM): 0.686
- relative viability (HARA; first compound 0.08 µM): 0.684
- relative viability (HARA; first compound 0.253 µM): 0.684
- relative viability (HARA; first compound 0.8 µM): 0.683
- relative viability (HARA; first compound 2.53 µM): 0.712
- relative viability (HARA; first compound 8 µM): 0.612
- relative viability (HCC-44; first compound 0.08 µM): 0.966
- relative viability (HCC-44; first compound 0.253 µM): 0.984
- relative viability (HCC-44; first compound 0.8 µM): 1
- relative viability (HCC-44; first compound 2.53 µM): 0.89
- relative viability (HCC-44; first compound 8 µM): 0.729
- relative viability (201T; first compound 0.08 µM): 1.07
- relative viability (201T; first compound 0.253 µM): 1.08
- relative viability (201T; first compound 0.8 µM): 1.07
- relative viability (201T; first compound 2.53 µM): 1.04
- relative viability (201T; first compound 8 µM): 1.06
- relative viability (NCI-H23; first compound 0.08 µM): 0.246
- relative viability (NCI-H23; first compound 0.253 µM): 0.206
- relative viability (NCI-H23; first compound 0.8 µM): 0.198
- relative viability (NCI-H23; first compound 2.53 µM): 0.222
- relative viability (NCI-H23; first compound 8 µM): 0.209
- relative viability (EMC-BAC-2; first compound 0.08 µM): 1.25
- relative viability (EMC-BAC-2; first compound 0.253 µM): 1.24
- relative viability (EMC-BAC-2; first compound 0.8 µM): 1.05
- relative viability (EMC-BAC-2; first compound 2.53 µM): 0.876
- relative viability (EMC-BAC-2; first compound 8 µM): 1.18
- relative viability (NCI-H1993; first compound 0.08 µM): 0.988
- relative viability (NCI-H1993; first compound 0.253 µM): 0.806
- relative viability (NCI-H1993; first compound 0.8 µM): 0.787
- relative viability (NCI-H1993; first compound 2.53 µM): 0.875
- relative viability (NCI-H1993; first compound 8 µM): 0.83
- relative viability (NCI-H596; first compound 0.08 µM): 0.854
- relative viability (NCI-H596; first compound 0.253 µM): 0.968
- relative viability (NCI-H596; first compound 0.8 µM): 0.937
- relative viability (NCI-H596; first compound 2.53 µM): 0.939
- relative viability (NCI-H596; first compound 8 µM): 0.957
- relative viability (NCI-H3122; first compound 0.08 µM): 0.0952
- relative viability (NCI-H3122; first compound 0.253 µM): 0.128
- relative viability (NCI-H3122; first compound 0.8 µM): 0.0733
- relative viability (NCI-H3122; first compound 2.53 µM): 0.0938
- relative viability (NCI-H3122; first compound 8 µM): 0.131
- relative viability (NCI-H2347; first compound 0.08 µM): 0.409
- relative viability (NCI-H2347; first compound 0.253 µM): 0.474
- relative viability (NCI-H2347; first compound 0.8 µM): 0.294
- relative viability (NCI-H2347; first compound 8 µM): 0.446
- relative viability (NCI-H2023; first compound 0.08 µM): 0.746
- relative viability (NCI-H2023; first compound 0.253 µM): 0.921
- relative viability (NCI-H2023; first compound 0.8 µM): 0.706
- relative viability (NCI-H2023; first compound 8 µM): 0.696
- relative viability (NCI-H1666; first compound 0.08 µM): 0.961
- relative viability (NCI-H1666; first compound 0.253 µM): 1.04
- relative viability (NCI-H1666; first compound 0.8 µM): 1
- relative viability (NCI-H1666; first compound 2.53 µM): 0.934
- relative viability (NCI-H1666; first compound 8 µM): 0.827
- relative viability (NCI-H2009; first compound 0.08 µM): 1.02
- relative viability (NCI-H2009; first compound 0.253 µM): 1.05
- relative viability (NCI-H2009; first compound 0.8 µM): 1
- relative viability (NCI-H2009; first compound 2.53 µM): 0.999
- relative viability (NCI-H2009; first compound 8 µM): 0.793
- relative viability (BEN; first compound 0.08 µM): 0.351
- relative viability (BEN; first compound 0.253 µM): 0.302
- relative viability (BEN; first compound 0.8 µM): 0.302
- relative viability (BEN; first compound 8 µM): 0.181
- relative viability (NCI-H727; first compound 0.08 µM): 0.371
- relative viability (NCI-H727; first compound 0.253 µM): 0.358
- relative viability (NCI-H727; first compound 0.8 µM): 0.312
- relative viability (NCI-H727; first compound 8 µM): 0.484
